Key:
PIK3CB (Human) = PIK3CB (Human) (UniProt P42338); assay: Enzyme Assay
PIK3CD (Human) [1] = molecular target: PIK3CD (Human) (UniProt O00329); assay: Enzyme Assay
PIK3CG (human) = PIK3CG (human) (UniProt P48736); assay: Enzyme Assay
PIK3CD (Human) [2] = molecular target: PIK3CD (Human) (UniProt O00329); assay: Cell-Based Assay; settings: raji
PIK3CA (human) = PIK3CA (human) (UniProt P42336); assay: Enzyme Assay
Sequence of PIK3CA (human) (P42336 whole entry, looked up): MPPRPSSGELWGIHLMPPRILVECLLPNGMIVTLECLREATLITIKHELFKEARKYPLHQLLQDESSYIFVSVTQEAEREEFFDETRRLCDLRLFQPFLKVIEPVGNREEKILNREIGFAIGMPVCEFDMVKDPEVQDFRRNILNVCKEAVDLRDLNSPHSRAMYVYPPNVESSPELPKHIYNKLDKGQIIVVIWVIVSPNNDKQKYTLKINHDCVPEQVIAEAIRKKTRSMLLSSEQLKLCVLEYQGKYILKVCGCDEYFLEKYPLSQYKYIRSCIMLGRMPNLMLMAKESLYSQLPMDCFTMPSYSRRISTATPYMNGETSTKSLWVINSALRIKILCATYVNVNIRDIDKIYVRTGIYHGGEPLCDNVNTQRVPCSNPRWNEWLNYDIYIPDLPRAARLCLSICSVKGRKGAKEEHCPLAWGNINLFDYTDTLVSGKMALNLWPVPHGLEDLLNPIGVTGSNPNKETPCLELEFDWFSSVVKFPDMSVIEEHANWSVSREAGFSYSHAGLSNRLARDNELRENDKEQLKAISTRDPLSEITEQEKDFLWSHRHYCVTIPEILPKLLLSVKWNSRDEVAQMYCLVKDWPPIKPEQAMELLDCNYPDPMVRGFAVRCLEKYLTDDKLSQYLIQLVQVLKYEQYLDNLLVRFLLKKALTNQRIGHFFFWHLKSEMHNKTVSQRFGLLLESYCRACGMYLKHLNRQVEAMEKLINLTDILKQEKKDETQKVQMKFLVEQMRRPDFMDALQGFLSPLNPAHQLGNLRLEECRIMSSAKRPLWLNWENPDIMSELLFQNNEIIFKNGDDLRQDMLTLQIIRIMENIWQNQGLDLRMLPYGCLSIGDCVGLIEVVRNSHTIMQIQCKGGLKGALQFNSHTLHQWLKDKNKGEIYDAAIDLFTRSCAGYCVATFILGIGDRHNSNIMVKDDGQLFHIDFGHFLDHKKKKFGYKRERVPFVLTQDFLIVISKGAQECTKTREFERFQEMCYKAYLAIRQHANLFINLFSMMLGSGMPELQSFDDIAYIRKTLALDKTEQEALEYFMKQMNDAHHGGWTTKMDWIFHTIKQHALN

Sequence of PIK3CB (Human) (P42338 whole entry, looked up): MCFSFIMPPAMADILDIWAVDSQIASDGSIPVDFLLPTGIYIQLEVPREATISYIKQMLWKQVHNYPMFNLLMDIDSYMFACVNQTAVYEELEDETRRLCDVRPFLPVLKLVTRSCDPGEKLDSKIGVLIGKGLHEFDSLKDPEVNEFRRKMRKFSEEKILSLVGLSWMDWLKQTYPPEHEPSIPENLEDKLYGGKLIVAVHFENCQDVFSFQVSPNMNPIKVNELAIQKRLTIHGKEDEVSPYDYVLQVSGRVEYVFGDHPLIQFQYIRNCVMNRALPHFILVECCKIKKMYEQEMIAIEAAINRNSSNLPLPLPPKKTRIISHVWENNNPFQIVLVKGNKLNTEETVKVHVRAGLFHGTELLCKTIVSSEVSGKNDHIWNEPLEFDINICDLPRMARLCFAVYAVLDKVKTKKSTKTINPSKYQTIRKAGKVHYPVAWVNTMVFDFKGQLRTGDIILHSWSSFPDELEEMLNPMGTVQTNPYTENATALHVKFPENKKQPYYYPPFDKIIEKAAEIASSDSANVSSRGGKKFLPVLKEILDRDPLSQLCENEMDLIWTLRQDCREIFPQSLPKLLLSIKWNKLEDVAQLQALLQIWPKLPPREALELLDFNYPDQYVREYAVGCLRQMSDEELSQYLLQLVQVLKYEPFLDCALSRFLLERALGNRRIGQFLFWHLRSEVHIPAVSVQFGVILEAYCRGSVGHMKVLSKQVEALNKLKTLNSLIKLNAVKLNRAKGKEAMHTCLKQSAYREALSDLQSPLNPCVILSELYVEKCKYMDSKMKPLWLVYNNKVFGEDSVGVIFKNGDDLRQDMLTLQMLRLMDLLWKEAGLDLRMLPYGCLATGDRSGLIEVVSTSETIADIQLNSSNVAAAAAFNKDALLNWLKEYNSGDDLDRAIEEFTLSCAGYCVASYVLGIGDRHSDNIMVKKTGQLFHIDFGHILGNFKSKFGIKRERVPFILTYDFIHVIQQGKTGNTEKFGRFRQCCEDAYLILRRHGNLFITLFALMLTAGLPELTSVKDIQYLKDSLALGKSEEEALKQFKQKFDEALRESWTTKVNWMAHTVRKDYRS
Sequence of PIK3CD (Human) (O00329 whole entry, looked up): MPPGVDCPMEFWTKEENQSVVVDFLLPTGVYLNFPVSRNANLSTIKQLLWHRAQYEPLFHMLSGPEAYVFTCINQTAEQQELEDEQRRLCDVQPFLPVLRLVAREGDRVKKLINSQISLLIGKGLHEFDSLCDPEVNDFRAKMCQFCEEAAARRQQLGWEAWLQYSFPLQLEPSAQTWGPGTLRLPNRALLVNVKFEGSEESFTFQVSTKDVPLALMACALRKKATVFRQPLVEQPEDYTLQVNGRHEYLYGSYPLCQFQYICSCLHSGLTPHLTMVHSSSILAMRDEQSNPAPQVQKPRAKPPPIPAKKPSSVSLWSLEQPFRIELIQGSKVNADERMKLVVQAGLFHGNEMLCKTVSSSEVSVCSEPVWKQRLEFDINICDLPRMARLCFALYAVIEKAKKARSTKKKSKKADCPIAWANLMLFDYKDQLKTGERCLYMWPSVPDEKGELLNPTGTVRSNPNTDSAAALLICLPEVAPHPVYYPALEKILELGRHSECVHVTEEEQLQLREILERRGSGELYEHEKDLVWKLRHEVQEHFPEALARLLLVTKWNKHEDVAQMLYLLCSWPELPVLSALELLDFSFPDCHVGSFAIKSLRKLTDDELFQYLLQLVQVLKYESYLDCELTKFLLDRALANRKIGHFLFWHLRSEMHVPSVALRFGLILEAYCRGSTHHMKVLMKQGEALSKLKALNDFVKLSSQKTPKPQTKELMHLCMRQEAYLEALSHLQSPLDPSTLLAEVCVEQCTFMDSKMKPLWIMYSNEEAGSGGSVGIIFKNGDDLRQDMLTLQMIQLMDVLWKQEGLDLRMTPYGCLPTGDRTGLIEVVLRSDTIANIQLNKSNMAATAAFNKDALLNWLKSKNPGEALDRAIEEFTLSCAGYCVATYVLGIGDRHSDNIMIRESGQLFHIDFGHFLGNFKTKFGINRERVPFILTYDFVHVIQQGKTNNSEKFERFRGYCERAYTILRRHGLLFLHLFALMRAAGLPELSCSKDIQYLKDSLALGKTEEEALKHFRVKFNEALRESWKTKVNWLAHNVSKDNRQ
Sequence of PIK3CG (human) (P48736 whole entry, looked up): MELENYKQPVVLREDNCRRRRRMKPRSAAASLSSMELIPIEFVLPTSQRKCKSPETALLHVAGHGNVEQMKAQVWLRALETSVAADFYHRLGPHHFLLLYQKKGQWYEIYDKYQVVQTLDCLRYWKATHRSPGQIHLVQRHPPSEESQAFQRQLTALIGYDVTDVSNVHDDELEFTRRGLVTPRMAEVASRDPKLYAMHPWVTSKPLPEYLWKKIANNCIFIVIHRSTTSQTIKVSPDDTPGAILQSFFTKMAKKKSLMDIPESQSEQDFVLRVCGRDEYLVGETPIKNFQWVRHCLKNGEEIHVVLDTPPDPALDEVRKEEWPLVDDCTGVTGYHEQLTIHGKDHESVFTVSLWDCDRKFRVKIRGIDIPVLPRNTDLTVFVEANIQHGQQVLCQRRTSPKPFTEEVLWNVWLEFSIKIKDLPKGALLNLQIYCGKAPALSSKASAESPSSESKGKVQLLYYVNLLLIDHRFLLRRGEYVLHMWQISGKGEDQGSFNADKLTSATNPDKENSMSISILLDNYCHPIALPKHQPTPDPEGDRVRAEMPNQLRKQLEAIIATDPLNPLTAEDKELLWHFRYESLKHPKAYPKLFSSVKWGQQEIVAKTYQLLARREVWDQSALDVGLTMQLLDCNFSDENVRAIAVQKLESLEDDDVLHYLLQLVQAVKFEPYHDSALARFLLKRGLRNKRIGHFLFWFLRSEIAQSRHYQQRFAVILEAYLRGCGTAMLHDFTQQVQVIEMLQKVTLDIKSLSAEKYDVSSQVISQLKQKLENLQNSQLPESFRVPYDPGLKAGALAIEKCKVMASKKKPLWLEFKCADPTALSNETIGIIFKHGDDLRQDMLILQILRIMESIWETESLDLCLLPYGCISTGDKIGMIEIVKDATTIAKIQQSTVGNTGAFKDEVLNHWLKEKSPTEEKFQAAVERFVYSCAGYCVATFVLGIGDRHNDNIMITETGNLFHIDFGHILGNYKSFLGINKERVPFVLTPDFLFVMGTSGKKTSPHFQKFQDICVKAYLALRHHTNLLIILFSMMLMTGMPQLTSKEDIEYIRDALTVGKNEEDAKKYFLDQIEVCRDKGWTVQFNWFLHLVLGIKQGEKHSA

Row | IC50 (PIK3CB (Human)) | IC50 (PIK3CD (Human) [1]) | IC50 (PIK3CG (human)) | IC50 (PIK3CD (Human) [2]) | IC50 (PIK3CA (human)) | SMILES
1 | 100 to 1000 nM | 100 to 1000 nM | – | < 100 nM | – | C[C@H](NC(=O)c1c(N)nn2cccnc12)c1cc2cccc(Cl)c2c(=O)n1-c1ccccc1
2 | ≥ 10000 nM | 100 to 1000 nM | < 100 nM | < 100 nM | – | COc1cncc(-c2cccc3cc([C@H](C)NC(=O)c4c(N)nn5cccnc45)n(-c4ccccc4)c(=O)c23)c1
3 | ≥ 10000 nM | 100 to 1000 nM | 100 to 1000 nM | < 100 nM | – | C[C@H](NC(=O)c1c(N)nn2cccnc12)c1cc2cccc(-c3cncc(NS(C)(=O)=O)c3)c2c(=O)n1-c1ccccc1
4 | – | ≥ 10000 nM | – | 100 to 1000 nM | ≥ 10000 nM | C[C@H](NC(=O)c1c(N)nn2cccnc12)c1cc2cccc(O)c2c(=O)n1-c1ccccc1
5 | ≥ 10000 nM | 100 to 1000 nM | 100 to 1000 nM | < 100 nM | – | C[C@H](NC(=O)c1c(N)nn2cccnc12)c1cc2cccc(-c3cccnc3)c2c(=O)n1-c1ccccc1
6 | ≥ 10000 nM | ≥ 10000 nM | – | 100 to 1000 nM | – | CNc1cccc2cc([C@H](C)NC(=O)c3c(N)nn4cccnc34)n(-c3ccccc3)c(=O)c12
7 | ≥ 10000 nM | – | 100 to 1000 nM | < 100 nM | ≥ 10000 nM | COc1ccc(-c2cccc3cc([C@H](C)NC(=O)c4c(N)nn5cccnc45)n(-c4ccccc4)c(=O)c23)cn1
8 | ≥ 10000 nM | – | 100 to 1000 nM | < 100 nM | ≥ 10000 nM | C[C@H](NC(=O)c1c(N)nn2cccnc12)c1cc2cccc(-c3cnn(C)c3)c2c(=O)n1-c1ccccc1
9 | ≥ 10000 nM | – | – | 100 to 1000 nM | ≥ 10000 nM | C[C@H](NC(=O)c1c(N)nn2cccnc12)c1cc2cccc(C3CC3)c2c(=O)n1-c1ccccc1
10 | ≥ 10000 nM | – | – | 100 to 1000 nM | ≥ 10000 nM | COc1cccc2cc([C@H](C)NC(=O)c3c(N)nn4cccnc34)n(-c3ccccc3)c(=O)c12
11 | ≥ 10000 nM | – | 100 to 1000 nM | – | ≥ 10000 nM | COc1ncc(-c2cccc3cc([C@H](C)NC(=O)c4c(N)nn5cccnc45)n(-c4ccccc4)c(=O)c23)s1
12 | – | – | 100 to 1000 nM | < 100 nM | ≥ 10000 nM | C[C@H](NC(=O)c1c(N)nn2cccnc12)c1cc2cccc(C(F)(F)F)c2c(=O)n1-c1ccccc1
13 | 100 to 1000 nM | – | < 100 nM | < 100 nM | 100 to 1000 nM | C[C@H](NC(=O)c1cnn2cccnc12)c1cc2cccc(C#CCNC(=O)[C@@H]3CCCO3)c2c(=O)n1-c1ccccc1
14 | – | 100 to 1000 nM | < 100 nM | – | – | C[C@H](NC(=O)c1c(N)nn2cccnc12)c1cc2cccc(C#CCNC(=O)C3CC(=O)CC(=O)C3)c2c(=O)n1-c1ccccc1
15 | ≥ 10000 nM | – | – | – | ≥ 10000 nM | C[C@H](NC(=O)c1c(N)nn2cccnc12)c1cc2cccc(CNC[C@@H]3CCCO3)c2c(=O)n1-c1ccccc1
16 | – | 100 to 1000 nM | < 100 nM | < 100 nM | – | C=CC(=O)NCC#Cc1cccc2cc([C@H](C)NC(=O)c3c(N)nn4cccnc34)n(-c3ccccc3)c(=O)c12
17 | – | – | 100 to 1000 nM | 100 to 1000 nM | ≥ 10000 nM | C[C@H](NC(=O)c1c(N)nn2cccnc12)c1cc2cccc(CO)c2c(=O)n1-c1ccccc1
18 | – | – | 100 to 1000 nM | < 100 nM | 100 to 1000 nM | C[C@H](NC(=O)c1c(N)nn2cccnc12)c1cc2cccc(C#CCNC(=O)c3ccc(C#N)o3)c2c(=O)n1-c1ccccc1
19 | ≥ 10000 nM | – | ≥ 10000 nM | – | ≥ 10000 nM | CNCc1cccc2cc([C@H](C)NC(=O)c3c(N)nn4cccnc34)n(-c3ccccc3)c(=O)c12
20 | – | – | < 100 nM | < 100 nM | 100 to 1000 nM | C[C@H](NC(=O)c1c(N)nn2cccnc12)c1cc2cccc(C#CCNC(=O)C3CCC(=O)C3)c2c(=O)n1-c1ccccc1 (some centres not stated)
21 | ≥ 10000 nM | – | – | – | ≥ 10000 nM | C[C@H](NC(=O)c1c(N)nn2cccnc12)c1cc2cccc(OC(F)(F)F)c2c(=O)n1-c1ccccc1
22 | ≥ 10000 nM | – | 100 to 1000 nM | – | ≥ 10000 nM | C[C@H](NC(=O)c1c(N)nn2cccnc12)c1cc2cccc(/C=N\O)c2c(=O)n1-c1ccccc1

The remaining lines, values behind:

Row | SMILES | IC50 (PIK3CB (Human)) | IC50 (PIK3CD (Human) [1]) | IC50 (PIK3CG (human)) | IC50 (PIK3CD (Human) [2]) | IC50 (PIK3CA (human))
23 | Cc1ccn2nc(N)c(C(=O)N[C@@H](C)c3cc4cccc(Cl)c4c(=O)n3-c3ccccc3)c2n1 | < 100 nM | 100 to 1000 nM | 100 to 1000 nM | < 100 nM | –
24 | C[C@H](NC(=O)c1nccnc1N)c1cc2cccc(-c3cnn(C)c3)c2c(=O)n1-c1ccccc1 | ≥ 10000 nM | – | 100 to 1000 nM | < 100 nM | ≥ 10000 nM
25 | C[C@H](NC(=O)c1nc(-c2csc(S(C)(=O)=O)n2)cnc1N)c1cc2cccc(Cl)c2c(=O)n1-c1ccccc1 | – | ≥ 10000 nM | – | – | ≥ 10000 nM
26 | C[C@H](NC(=O)c1cnc2cccnn12)c1cc2cccc(Cl)c2c(=O)n1-c1ccccc1 | – | 100 to 1000 nM | – | 100 to 1000 nM | –
27 | COc1cccc2c(Br)c([C@H](C)NC(=O)c3c(N)nn4cccnc34)n(-c3ccccc3)c(=O)c12 | ≥ 10000 nM | – | 100 to 1000 nM | – | ≥ 10000 nM
28 | C[C@H](NC(=O)c1c(N)nn2cccnc12)c1cc2cccc(Cl)c2c(=O)n1-c1cccc(F)c1 | 100 to 1000 nM | 100 to 1000 nM | < 100 nM | < 100 nM | –
29 | C[C@H](NC(=O)c1nc(-c2cnn(C)c2)cnc1N)c1cc2cccc(Cl)c2c(=O)n1-c1ccccc1 | – | ≥ 10000 nM | – | 100 to 1000 nM | –
30 | Nc1nccnc1C(=O)N1CCC[C@H]1c1cc2cccc(Cl)c2c(=O)n1-c1ccccc1 | ≥ 10000 nM | – | ≥ 10000 nM | – | ≥ 10000 nM
31 | COc1cc(-c2cccc3cc([C@H](C)NC(=O)c4c(N)ncc5cccnc45)n(-c4ccccc4)c(=O)c23)ccn1 | ≥ 10000 nM | 100 to 1000 nM | < 100 nM | < 100 nM | –
32 | COc1cc(-c2cccc3cc([C@H](C)NC(=O)c4ncc(C)nc4N)n(-c4ccccc4)c(=O)c23)ccn1 | ≥ 10000 nM | – | – | 100 to 1000 nM | ≥ 10000 nM
33 | C[C@H](NC(=O)c1nccnc1N)c1cc2cccc(Cl)c2c(=O)n1-c1ccccc1 | 100 to 1000 nM | < 100 nM | 100 to 1000 nM | < 100 nM | –
34 | C[C@H](NC(=O)c1c(N)nn2cccnc12)c1cc2cccc(Cl)c2c(=O)n1CCNCCO | < 100 nM | 100 to 1000 nM | – | – | –
35 | C[C@H](NC(=O)c1c(N)nn2cccnc12)c1cc2scc(Cl)c2c(=O)n1-c1ccccc1 | 100 to 1000 nM | 100 to 1000 nM | < 100 nM | < 100 nM | –
36 | C[C@H](NC(=O)c1nc(-c2cscn2)cnc1N)c1cc2cccc(Cl)c2c(=O)n1-c1ccccc1 | – | ≥ 10000 nM | 100 to 1000 nM | 100 to 1000 nM | –
37 | COc1ccc(-c2cnc(N)c(C(=O)N[C@@H](C)c3cc4cccc(Cl)c4c(=O)n3-c3ccccc3)n2)cc1NS(C)(=O)=O | 100 to 1000 nM | – | < 100 nM | < 100 nM | 100 to 1000 nM
38 | C[C@H](NC(=O)c1cncc2cccnc12)c1cc2cccc(Cl)c2c(=O)n1-c1ccccc1 | – | 100 to 1000 nM | – | < 100 nM | ≥ 10000 nM
39 | Cc1cnc(C(=O)N[C@@H](C)c2c(Br)c3cccc(Cl)c3c(=O)n2-c2ccccc2)c(N)n1 | ≥ 10000 nM | – | – | – | ≥ 10000 nM

Row | SMILES | IC50 (PIK3CB (Human)) | IC50 (PIK3CD (Human) [1]) | IC50 (PIK3CG (human)) | IC50 (PIK3CD (Human) [2]) | IC50 (PIK3CA (human))
40 | C[C@H](NC(=O)c1c(N)nn2cccnc12)c1nc2cccc(Cl)c2c(=O)n1-c1ccccc1 | 100 to 1000 nM | < 100 nM | < 100 nM | < 100 nM | –
41 | C[C@H](NC(=O)c1c(N)ncc2cccnc12)c1cc2cccc(N3CCOCC3)c2c(=O)n1-c1ccccc1 | ≥ 10000 nM | – | 100 to 1000 nM | < 100 nM | ≥ 10000 nM
42 | C[C@H](NC(=O)c1c(N)nn2cccnc12)c1cc2cccc(Cl)c2c(=O)n1CC(O)CO (some centres not stated) | < 100 nM | 100 to 1000 nM | 100 to 1000 nM | < 100 nM | –
43 | C[C@H](NC(=O)c1c(N)ncc2cccnc12)c1cc2cccc(Cl)c2c(=O)n1-c1ccccc1 | 100 to 1000 nM | 100 to 1000 nM | 100 to 1000 nM | < 100 nM | –
44 | CC[C@H](NC(=O)c1c(N)nn2cccnc12)c1cc2cccc(Cl)c2c(=O)n1-c1ccccc1 | < 100 nM | < 100 nM | 100 to 1000 nM | < 100 nM | –
45 | C[C@H](NC(=O)c1c(N)nn2cccnc12)c1cc2cccc(Cl)c2c(=O)n1C | < 100 nM | 100 to 1000 nM | 100 to 1000 nM | < 100 nM | –
46 | C=CCn1c([C@H](C)NC(=O)c2c(N)nn3cccnc23)cc2cccc(Cl)c2c1=O | < 100 nM | 100 to 1000 nM | 100 to 1000 nM | < 100 nM | –
47 | COc1cccc2c(C)c([C@H](C)NC(=O)c3c(N)nn4cccnc34)n(-c3ccccc3)c(=O)c12 | ≥ 10000 nM | – | 100 to 1000 nM | – | ≥ 10000 nM
48 | C[C@H](NC(=O)c1nc(-c2cccc(NS(=O)(=O)N(C)C)c2)cnc1N)c1cc2cccc(Cl)c2c(=O)n1-c1ccccc1 | 100 to 1000 nM | 100 to 1000 nM | < 100 nM | < 100 nM | –
49 | C[C@H](NC(=O)c1c(N)nn2cccnc12)c1c(Br)c2cccc(Cl)c2c(=O)n1-c1ccccc1 | – | 100 to 1000 nM | < 100 nM | < 100 nM | –
50 | Cc1c([C@H](C)NC(=O)c2c(N)nn3cccnc23)n(-c2ccccc2)c(=O)c2c(F)cccc12 | 100 to 1000 nM | 100 to 1000 nM | < 100 nM | < 100 nM | –
51 | COc1ccc(-c2cnc(N)c(C(=O)N[C@@H](C)c3cc4cccc(Cl)c4c(=O)n3-c3ccccc3)n2)cc1F | ≥ 10000 nM | – | – | – | ≥ 10000 nM
52 | CNCCn1c([C@H](C)NC(=O)c2c(N)nn3cccnc23)cc2cccc(Cl)c2c1=O | < 100 nM | < 100 nM | – | – | –
53 | CC(C)Oc1ccc(-c2cnc(N)c(C(=O)N[C@@H](C)c3cc4cccc(Cl)c4c(=O)n3-c3ccccc3)n2)cn1 | ≥ 10000 nM | – | – | 100 to 1000 nM | ≥ 10000 nM
54 | C[C@H](NC(=O)c1c(N)nn2cccnc12)c1c(C#N)c2cccc(F)c2c(=O)n1-c1ccccc1 | 100 to 1000 nM | 100 to 1000 nM | 100 to 1000 nM | < 100 nM | –
55 | Nc1nn2cccnc2c1C(=O)N1CCC[C@H]1c1cc2cccc(Cl)c2c(=O)n1-c1ccccc1 | – | ≥ 10000 nM | – | – | ≥ 10000 nM
